Assay results as given in patent publication US20140030368A1, “COMPOSITION FOR PREVENTING OR TREATING A RESPIRATORY DISEASE CONTAINING A MIXED HERBAL EXTRACT OF CNIDIUM OFFICINALE ROOT AND POLYGONI CUSPIDATI ROOT” (WHANIN PHARMACEUTICAL CO., LTD., priority 2011, published 2014).

Tests used:
[1] = system: airway constriction of the sensitized guinea pigs; assay: Test for airway constriction inhibition (in vivo), airway resistance AUC after ovalbumin aerosol; settings: oral dose 10 mg/kg
[2] = target: T1, 5-lipoxygenase (Rattus norvegicus, UniProt P12527); assay: 5-Lipoxygenase inhibitory activity (leukotriene production in RBL-1 cells, cysteinyl leukotriene EIA); format: cell-based; settings: 2 μM; RBL-1 cells; read-out: 5-lipoxygenase inhibition rate(%)
T1 construct: rat basophilic leukemia cells (RBL-1) were stabilized using serum-free RPMI medium; endogenous in cells; host or cells: RBL-1 (rat basophilic leukemia cells)
T1 sequence (P12527 whole entry): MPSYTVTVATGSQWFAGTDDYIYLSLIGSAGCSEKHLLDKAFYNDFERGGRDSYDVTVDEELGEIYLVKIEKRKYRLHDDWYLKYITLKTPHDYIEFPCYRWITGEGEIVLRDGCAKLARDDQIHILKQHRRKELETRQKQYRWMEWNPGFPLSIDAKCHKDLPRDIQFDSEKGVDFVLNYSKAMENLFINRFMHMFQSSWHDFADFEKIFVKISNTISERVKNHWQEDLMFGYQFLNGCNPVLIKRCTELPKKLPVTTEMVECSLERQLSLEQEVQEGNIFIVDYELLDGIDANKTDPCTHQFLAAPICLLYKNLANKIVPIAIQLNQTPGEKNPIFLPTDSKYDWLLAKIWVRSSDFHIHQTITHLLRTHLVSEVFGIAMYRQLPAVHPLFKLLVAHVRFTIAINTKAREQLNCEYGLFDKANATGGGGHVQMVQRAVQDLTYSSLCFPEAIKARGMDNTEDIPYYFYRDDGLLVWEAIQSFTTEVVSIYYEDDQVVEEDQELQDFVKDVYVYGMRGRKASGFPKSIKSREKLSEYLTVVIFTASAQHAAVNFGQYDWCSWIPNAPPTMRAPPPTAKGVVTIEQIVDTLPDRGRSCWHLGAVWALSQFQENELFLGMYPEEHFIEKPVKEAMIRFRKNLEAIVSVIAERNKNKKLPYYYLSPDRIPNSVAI
Method: Specifically, rat basophilic leukemia cells (RBL-1) were stabilized using serum-free RPMI medium at 37° C., and each of the extracts and arachidonic acid as a substrate were added thereto and incubated for 15 minutes to produce leukotriene. The amount of the produced leukotriene was measured using a cysteinyl leukotriene EIA kit. As comparative drugs, the 5-lipoxygenase inhibitors zileuton and montelukast were used.

For `CC(C)(O)c1ccccc1CC[C@@H](SCC1(CC(=O)O)CC1)c1cccc(/C=C/c2ccc3ccc(Cl)cc3n2)c1` [montelukast], the “Airway constriction inhibition rate (%)” value [1] was 53% and the inhibition at 2 µM [2] was 45%.
